Measured values published in PubChem BioAssay (NCI).
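Where inhibition never reached the appropriate level, the endpoint shown equals the highest concentration tested. Otherwise, values were interpolated linearly from a five-concentration, 48-hour dose response in 96-well plates. GI50: concentration for 50% inhibition of growth. TGI: concentration producing complete growth inhibition.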

Assays:
Experiment in all cases: NCI-60 cell line screen, 48 h
[1] = test system: MCF7 breast
[2] = test system: ACHN renal
[3] = test system: K-562 leukemia
[4] = test system: EKVX NSCLC
[5] = test system: HCC-2998 colon
[6] = test system: OVCAR-8 ovarian
[7] = test system: HS 578T breast
[8] = test system: HL-60(TB) leukemia
[9] = test system: SW-620 colon
[10] = test system: 786-0 renal
[11] = test system: UO-31 renal
[12] = test system: UACC-257 melanoma
[13] = test system: COLO 205 colon
[14] = test system: MALME-3M melanoma
[15] = test system: HT29 colon
[16] = test system: A498 renal
[17] = test system: HOP-62 NSCLC
[18] = test system: UACC-62 melanoma
[19] = test system: NCI-H522 lung
[20] = test system: SF-539 CNS
[21] = test system: A549 NSCLC
[22] = test system: HCT-116 colon
[23] = test system: MOLT-4 leukemia
[24] = test system: DU-145 prostate
[25] = test system: SK-MEL-28 melanoma
[26] = test system: CCRF-CEM leukemia
[27] = test system: SNB-19 CNS
[28] = test system: NCI-H226 lung
[29] = test system: OVCAR-4 ovarian
[30] = test system: IGROV1 ovarian
[31] = test system: NCI-H460 lung
[32] = test system: PC-3 prostate
[33] = test system: RXF 393 renal
[34] = test system: SF-295 CNS
[35] = test system: CAKI-1 renal
[36] = test system: OVCAR-5 ovarian
[37] = test system: SK-MEL-5 melanoma
[38] = test system: U251 CNS
[39] = test system: T-47D breast
[40] = test system: NCI-H23 lung
[41] = test system: BT-549 breast
[42] = test system: HCT-15 colon
[43] = test system: MDA-MB-231 breast
[44] = test system: LOX IMVI melanoma
[45] = test system: SK-MEL-2 melanoma
[46] = test system: SK-OV-3 ovarian
[47] = test system: SR leukemia
[48] = test system: KM12 colon
[49] = test system: NCI/ADR-RES ovarian
[50] = test system: SNB-75 CNS
[51] = test system: TK-10 renal
[52] = test system: M14 melanoma
[53] = test system: MDA-MB-435
[54] = test system: SF-268 CNS
[55] = test system: HOP-92 NSCLC
[56] = test system: SN12C renal

For CCn1c(SCC(=O)Nc2cccc(C(=O)/C=C/c3cc(OC)c(OC)c(OC)c3)c2)nc2ccccc2c1=O, the GI50 [1] was 2.3 µM, the TGI [1] was > 100 µM and the GI50 [2] was 2.29 µM. For the same compound, the TGI [2] was 6.61 µM, the GI50 [3] was 3.19 µM and the TGI [3] was > 100 µM. The GI50 [4] was 4.26 µM, the TGI [4] was 56.7 µM and the GI50 [5] was 2 µM. The TGI [5] was 4.49 µM, the GI50 [6] was 3.16 µM and the TGI [6] was > 100 µM. The GI50 [7] was 3.64 µM, the TGI [7] was > 100 µM and the GI50 [8] was 3.38 µM. The TGI [8] was > 100 µM, the GI50 [9] was 2.48 µM and the TGI [9] was 7.05 µM. The GI50 [10] was 1.94 µM, the TGI [10] was 3.92 µM and the GI50 [11] was 1.7 µM. For the same compound, the TGI [11] was 6.42 µM, the GI50 [12] was 12.5 µM and the TGI [12] was > 100 µM. The GI50 [13] was 3.91 µM, the TGI [13] was 89.1 µM and the GI50 [14] was 6.52 µM. The TGI [14] was > 100 µM, the GI50 [15] was 2.07 µM and the TGI [15] was 4.39 µM. For the same compound, the GI50 [16] was 2.15 µM, the TGI [16] was 9.11 µM and the GI50 [17] was 2.46 µM. It also gave a TGI [17] of 6.78 µM, a GI50 [18] of 4.43 µM and a TGI [18] of 76.7 µM. The GI50 [19] was 2.86 µM, the TGI [19] was 9.29 µM and the GI50 [20] was 2.3 µM. For the same compound, the TGI [20] was 5.77 µM, the GI50 [21] was 3.05 µM and the TGI [21] was 30.8 µM. For the same compound, the GI50 [22] was 1.73 µM, the TGI [22] was 3.75 µM and the GI50 [23] was 3.55 µM. For the same compound, the TGI [23] was > 100 µM, the GI50 [24] was 2.36 µM and the TGI [24] was 6.12 µM. For the same compound, the GI50 [25] was 3.66 µM, the TGI [25] was > 100 µM and the GI50 [26] was 2.57 µM. For the same compound, the TGI [26] was > 100 µM, the GI50 [27] was 3.89 µM and the TGI [27] was > 100 µM. For the same compound, the GI50 [28] was 1.91 µM, the TGI [28] was 5.55 µM and the GI50 [29] was 5.52 µM. For the same compound, the TGI [29] was > 100 µM, the GI50 [30] was 1.8 µM and the TGI [30] was 4.31 µM. The GI50 [31] was 2.6 µM, the TGI [31] was 11.7 µM and the GI50 [32] was 5.09 µM. The TGI [32] was > 100 µM, the GI50 [33] was 1.56 µM and the TGI [33] was 7.82 µM. For the same compound, the GI50 [34] was 4.1 µM, the TGI [34] was 20.6 µM and the GI50 [35] was 3.75 µM. For the same compound, the TGI [35] was > 100 µM, the GI50 [36] was 2.36 µM and the TGI [36] was 5.65 µM. The GI50 [37] was 9.79 µM, the TGI [37] was 32 µM and the GI50 [38] was 2.35 µM. For the same compound, the TGI [38] was 6.46 µM, the GI50 [39] was 5.08 µM and the TGI [39] was > 100 µM. The GI50 [40] was 2.63 µM, the TGI [40] was 8.58 µM and the GI50 [41] was 2.66 µM. For the same compound, the TGI [41] was 9.31 µM, the GI50 [42] was 2.27 µM and the TGI [42] was 9.62 µM. The GI50 [43] was 5.26 µM, the TGI [43] was > 100 µM and the GI50 [44] was 1.18 µM. It also gave a TGI [44] of 2.63 µM, a GI50 [45] of 3.3 µM and a TGI [45] of 15.3 µM. For the same compound, the GI50 [46] was 16.2 µM, the TGI [46] was 76.3 µM and the GI50 [47] was 1.29 µM. The TGI [47] was > 100 µM, the GI50 [48] was 1.89 µM and the TGI [48] was 4.52 µM. The GI50 [49] was 2.89 µM, the TGI [49] was 15.4 µM and the GI50 [50] was 2.65 µM. The TGI [50] was > 100 µM, the GI50 [51] was 7.08 µM and the TGI [51] was > 100 µM. The GI50 [52] was 2.9 µM, the TGI [52] was > 100 µM and the GI50 [53] was 3.12 µM. The TGI [53] was 48.2 µM, the GI50 [54] was 4.13 µM and the TGI [54] was > 100 µM. For the same compound, the GI50 [55] was 3.17 µM, the TGI [55] was > 100 µM and the GI50 [56] was 3.86 µM. The TGI [56] was > 100 µM.
